# Earlier results as cited in patent publication US10029078B2, “Pancreas perfusion apparatus, method for controlling same, and method for pancreas perfusion” (KOSEI ADVANCE CO., LTD., priority 2013, dated 2018).
# Tested on: unresectable pancreatic cancer
# Settings: patients with unresectable pancreatic cancer, systemic chemotherapy
structure (smiles),measurement,value
Nc1ccn([C@@H]2O[C@H](CO)[C@@H](O)C2(F)F)c(=O)n1 [gemcitabine],median survival time,approximately 6 months
same,response rate,approximately 10%
